Data: US9682954B2, “Phenanthridine derivatives, preparation methods and uses thereof” (Kunming Institute of Botany, The Chinese Academy of Sciences, priority 2013, dated 2017)
Where two headings read alike, the source gives them in different places.

Experiments:
[1] = tested on: Huh7.5 cells; test: in vitro
Procedure: (§1) (1) Toxicity Experiment of the Compound on Huh7.5:
(§2) 100 μL of Huh7.5 cells (1×10^5/ml) was inoculated in 96-wells plates and incubated in an incubator at 37° C. under 5% of CO2 and saturated humidity for 24 hrs. Then different concentration of the compound of the present invention and positive control (VX-950, telaprevir) were added respectively and incubated for a further 72 hrs. 10 μL of MTT (5 mg/mL) was added per well and incubated for another 4 hrs. After the cells were lysed with DMSO, OD570-630 […] was determined on ELIASA. In comparison with OD of the control group, inhibitory rate of each concentration on cell toxicity was calculated, and half toxic concentration of the compound was calculated with Reed-Muench method.

[2] = tested on: HCV; test: microbe, parasite or virus in culture; format: cell-based, Hepatitis C Virus (HCV); conditions: Huh7.5 cells infected with HCV, intracellular HCV RNA by qRT-PCR, Reed-Muench method
Procedure: (2) Anti-HCV Activity of the Compound in Cells:
The total RNA was extracted from the cells. The intracellular content of HCV and RNA of internal control gene GAPDH were determined by real-time fluorescence qRT-PCR.

[3] = in vitro; conditions: human
Procedure: as §1, §2

[4] = tested on: Wnt signaling pathway; test: Activity assay of the reporter gene (Wnt signaling pathway activation, Wnt3a conditioned medium); format: cell-based; conditions: for activation of the reporter gene systems of classical Wnt signaling pathway: in the way of depending on Wnt3a receptors; for Concentration of compounds for doubly synergetic activating Wnt reporter gene: with Wnt3a conditioned medium
Procedure: After 6 hours, the cells are collected and activities of the report genes are determined.
Activity Assay of the Reporter Gene
HEK293T, HCT116, SW480 or NIH3T3 cells used for activity assay of the reporter gene were inoculated into 24-wells plates respectively 24 hours before transfection then transfected following the above mentioned reference method. The amount of the plasmids used for Transfection was: 20 ng of TOPFlash, NFAT-Luc, or SRF-Luc, and 25 ng of EGFP-C1 (HEK293T); 25 ng of LEF-Luc, 75 ng of LEF1, and 25 ng of EGFP-C1 (NIH3T3); 100 ng of TOPFlash or Fopfllash and 100 ng of EGFP-C1 (HCT116 and SW480). The cells were transfected with other plasmids following experimental requirements, LacZs were added to meet a total content of 250 ng (in RNAi and plasmid co-transfection experiments, 1 μl of siRNA was added when every 100 ng/well of the plasmid was transfected). Wnt3a conditioned medium was added 18 hours after transfection to stimulate the cells for 6-8 hours, the cells were lysed using Boehringer Mannheim Luci-ferase Assay Kit (200 μl/well). Intensity of GFP proteins in cell lysates were determined as internal standards of expression quantity of the cells using fluorescence meter FL600 (BIO-TEK Inc. Winooski, Vt.), and then 20 μl of luciferase substrates were added. Luciferase activity was determined with Micro Lumate Plus (Perkin Elmer Inc. Wellesley, Mass.) luminometer. Finally, the luciferase activity was homogenized using activity of GFP.

[5] = Hepatitis C virus, Huh7.5, 72 h

Row | SMILES | CC50 at 72 h [3] | EC50 [2, 5] | further results
1 | CCc1cccc2c1N(C)Cc1cc(OCc3cccc(OC)c3OC)c(OCc3cccc(OC)c3OC)cc1-2 [Compound 10h, 4-ethyl-5-methyl-8,9-di(2,3-dimethoxy)benzyloxy-5,6-dihydro-phenanthridine] | – | – | CC50 [1]: > 100 µM; EC50 ([2]; 72 hrs, read-out: EC50): 4.32 ± 0.1 µM
2 | CCc1cccc2c1N(C)Cc1cc(OC(C)=O)c(OC(C)=O)cc1-2 [Compound 10j, 4-ethyl-5-methyl-8,9-diacetoxy-5,6-dihydro-phenanthridine] | 90.1 ± 7.4 µM | 0.23 ± 0.08 µM | –
3 | CCc1cccc2c1N(C)Cc1cc(OCc3ccccc3)c(OCc3ccccc3)cc1-2 [Compound 10g, 4-ethyl-5-methyl-8,9-dibenzyloxy-5,6-dihydro-phenanthridine] | 30.2 ± 0.6 µM | 1.25 ± 0.56 µM | –
4 | C=Cc1cccc2c1N(C)Cc1cc(OCc3cn(CCN)nn3)c(OCc3cn(CCN)nn3)cc1-2 [Compound 11q, 4-ethenyl-5-methyl-8,9-bis[1-(2-amino-ethyl)-1H-[1,2,3]triazol-4-ylmethoxy]-5,6-dihydrophenanthridine] | – | – | activation of the reporter gene systems of classical Wnt signaling pathway [4]: activate the reporter gene systems of classical Wnt signaling pathway; Concentration of compounds for doubly synergetic activating Wnt reporter gene [4]: 2.5 µM
5 | CCc1cccc2c1N(C)Cc1cc(OC(=O)c3ccc(Br)cc3)c(OC(=O)c3ccc(Br)cc3)cc1-2 [Compound 10p, 4-ethyl-5-methyl-8,9-di(4-bromo)benzoyloxy-5,6-dihydro-phenanthridine] | – | – | CC50 [1]: > 100 µM; EC50 ([2]; 72 hrs, read-out: EC50): 1.19 ± 0.02 µM
6 | C#CCOc1cc2c(cc1OCC#C)-c1cccc(CC)c1N(C)C2 [Compound 10d, 4-ethyl-5-methyl-8,9-diprop-2-ynyloxy-5,6-dihydro-phenanthridine] | 58.3 ± 2.1 µM | 0.83 ± 0.35 µM | –
7 | C=CCOc1cc2c(cc1OCC=C)-c1cccc(CC)c1N(C)C2 [Compound 10c, 4-ethyl-5-methyl-8,9-diallyloxy-5,6-dihydro-phenanthridine] | > 100 µM | 16.3 ± 10.1 µM | –
8 | C=Cc1cccc2c1N(C)Cc1cc(OCC3CCCCC3)c(OCC3CCCCC3)cc1-2 [Compound 11d, 4-ethenyl-5-methyl-8,9-bis-cyclohexylmethoxy-5,6-dihydro-phenanthridine] | > 100 µM | > 33.3 µM | –
9 | C=Cc1cccc2c1N(C)Cc1cc(OCc3cccc(OC)c3OC)c(OCc3cccc(OC)c3OC)cc1-2 [Compound 11f, 4-ethenyl-5-methyl-8,9-di(2,3-dimethoxy)benzyloxy-5,6-dihydro-phenanthridine] | – | – | CC50 [1]: 32.9 ± 1.28 µM; EC50 ([2]; 72 hrs, read-out: EC50): 0.3 ± 0.01 µM
10 | CCc1cccc2c1N(C)Cc1cc(OC)c(OC)cc1-2 [Compound 10a, 4-ethyl-5-methyl-8,9-dimethoxy-5,6-dihydro-phenanthridine] | > 100 µM | < 0.41 µM | –
11 | C=Cc1cccc2c1N(C)Cc1cc(OC(=O)CCCC)c(OC(=O)CCCC)cc1-2 [Compound 11k, 4-ethenyl-5-methyl-8,9-divaleryoxy-5,6-dihydro-phenanthridine] | – | – | CC50 [1]: > 100 µM; EC50 ([2]; 72 hrs, read-out: EC50): 0.94 ± 0.02 µM
12 | C=Cc1cccc2c1N(C)Cc1cc(OC(=O)c3ccccc3)c(OC(=O)c3ccccc3)cc1-2 [Compound 11m, 4-ethenyl-5-methyl-8,9-dibenzoyloxy-5,6-dihydro-phenanthridine] | > 100 µM | 1.03 ± 0.07 µM | –
13 | C=Cc1cccc2c1N(C)Cc1cc(OCc3ccccc3)c(OCc3ccccc3)cc1-2 [Compound 11e, 4-ethenyl-5-methyl-8,9-dibenzyloxy-5,6-dihydro-phenanthridine] | > 100 µM | 13.4 ± 0.98 µM | –
14 | C=Cc1cccc2c1N(C)Cc1cc(OC(=O)CC(C)C)c(OC(=O)CC(C)C)cc1-2 [Compound 11l, 4-ethenyl-5-methyl-8,9-diisovaleroxy-5,6-dihydro-phenanthridine] | > 100 µM | 3.27 ± 1.26 µM | –
15 | CCc1cccc2c1N(C)Cc1cc(O)c(O)cc1-2 [Compound 10, 4-ethyl-5-methyl-5,6-dihydro-phenanthridine-8,9-diol] | 61.3 ± 8.4 µM | > 11.1 µM | –
16 | CCc1cccc2c1N(C)Cc1cc(OCC3CCC3)c(OCC3CCC3)cc1-2 [Compound 10e, 4-ethyl-5-methyl-8,9-bis-cyclobutylmethoxy-5,6-dihydro-phenanthridine] | > 100 µM | 9.5 ± 2.71 µM | –
17 | C=CCOc1cc2c(cc1OCC=C)-c1cccc(C=C)c1N(C)C2 [Compound 11a, 4-ethenyl-5-methyl-8,9-diallyloxy-5,6-dihydro-phenanthridine] | > 100 µM | 28.8 ± 5.38 µM | –
18 | CCc1cccc2c1N(C)Cc1cc(OC(=O)c3ccccc3)c(OC(=O)c3ccccc3)cc1-2 [Compound 10o, 4-ethyl-5-methyl-8,9-dibenzoyloxy-5,6-dihydro-phenanthridine] | 91.5 ± 4.19 µM | 11 ± 2.23 µM | –
19 | C=Cc1cccc2c1N(C)Cc1cc(OC(C)=O)c(OC(C)=O)cc1-2 [Compound 11h, 4-ethenyl-5-methyl-8,9-diacetoxy-5,6-dihydro-phenanthridine] | > 100 µM | 1.63 ± 0.91 µM | –
20 | C=Cc1cccc2c1N(C)Cc1cc(O)c(O)cc1-2 [Compound 11, 4-ethenyl-5-methyl-5,6-dihydrophenanthridine-8,9-diol] | > 100 µM | 8.37 ± 2.39 µM | –
21 | CCc1cccc2c1N(C)Cc1cc(OC(=O)C(C)C)c(OC(=O)C(C)C)cc1-2 [Compound 10l, 4-ethyl-5-methyl-8,9-diisobutyryloxy-5,6-dihydro-phenanthridine] | > 100 µM | 13.9 ± 11.4 µM | –
22 | CCc1cccc2c1N(C)Cc1cc3c(cc1-2)OCO3 [Compound 9, 4-ethyl-5-methyl-5,6-dihydro-[1,3]dioxolo[4,5-j]phenanthridine] | – | – | activation of the reporter gene systems of classical Wnt signaling pathway [4]: activate the reporter gene systems of classical Wnt signaling pathway; Concentration of compounds for doubly synergetic activating Wnt reporter gene [4]: 3.75 µM
23 | C=Cc1cccc2c1N(C)Cc1cc(OCc3cn(CCNC(C)=O)nn3)c(OCc3cn(CCNC(C)=O)nn3)cc1-2 [Compound 11r, 4-ethenyl-5-methyl-8,9-bis[1-(2-acetylamino-ethyl)-1H-[1,2,3]triazol-4-ylmethoxy]-5,6-dihydro-phenanthridine] | – | – | activation of the reporter gene systems of classical Wnt signaling pathway [4]: activate the reporter gene systems of classical Wnt signaling pathway; Concentration of compounds for doubly synergetic activating Wnt reporter gene [4]: 5 µM
24 | CCc1cccc2c1N(C)Cc1cc(OCc3cn(CCNC(C)=O)nn3)c(OCc3cn(CCNC(C)=O)nn3)cc1-2 [Compound 10r, 4-ethyl-5-methyl-8,9-bis[1-(2-acetylamino-ethyl)-1H-[1,2,3]triazol-4-ylmethoxy]-5,6-dihydro-phenanthridine] | – | – | activation of the reporter gene systems of classical Wnt signaling pathway [4]: activate the reporter gene systems of classical Wnt signaling pathway; Concentration of compounds for doubly synergetic activating Wnt reporter gene [4]: 1.25 µM
25 | C=Cc1cccc2c1N(C)Cc1cc(OCC3CCC3)c(OCC3CCC3)cc1-2 [Compound 11c, 4-ethenyl-5-methyl-8,9-bis-cyclobutylmethoxy-5,6-dihydro-phenanthridine] | > 100 µM | 11.3 ± 1.66 µM | –
26 | C#CCOc1cc2c(cc1OCC#C)-c1cccc(C=C)c1N(C)C2 [Compound 11b, 4-ethenyl-5-methyl-8,9-di(prop-2-ynyloxy)-5,6-dihydro-phenanthridine] | > 100 µM | 4.2 ± 1.72 µM | –
27 | C=Cc1cccc2c1N(C)Cc1cc(OC(=O)CC)c(OC(=O)CC)cc1-2 [Compound 11i, 4-ethenyl-5-methyl-8,9-dipropionyloxy-5,6-dihydro-phenanthridine] | > 100 µM | 1.02 ± 0.16 µM | –
28 | CCc1cccc2c1N(C)Cc1cc(OCC3CCCCC3)c(OCC3CCCCC3)cc1-2 [Compound 10f, 4-ethyl-5-methyl-8,9-bis-cyclohexylmethoxy-5,6-dihydro-phenanthridine] | > 100 µM | 10.8 ± 2.86 µM | –
29 | C=Cc1cccc2c1N(C)Cc1cc(OC(=O)C(C)C)c(OC(=O)C(C)C)cc1-2 [Compound 11j, 4-ethenyl-5-methyl-8,9-diisobutyryloxy-5,6-dihydro-phenanthridine] | > 100 µM | 1.83 ± 0.17 µM | –
30 | CCc1cccc2c1N(C)Cc1cc(OC(=O)CC(C)C)c(OC(=O)CC(C)C)cc1-2 [Compound 10n, 4-ethyl-5-methyl-8,9-diisovaleroxy-5,6-dihydro-phenanthridine] | 50.3 ± 1 µM | 1.43 ± 0.45 µM | –
